This data set in a line: Measurement of solubility in dilution solvent (PGMEA). The data set is classed as physicochemical. The following applies: 0.5 g compound in PGMEA, stirred at 25° C. for 1 hour. The protocol: 0.5 g of each compound Synthesis Examples 1 to 5 and Comparative Synthesis Examples 1 to 5 was added to a dilution solvent (PGMEA), and each corresponding solution was stirred with Mix-Rotar VMR-5 (Luchi Seieido Co., Ltd.) at 25° C. for 1 hour and then, evaluated with respect to solubility, and the results are shown in Table 2.
Solubility Evaluation Criteria
• 10 wt % or more of the compound (solute) was dissolved in the total amount of the diluent: ∘ • Less than 10 wt % of the compound (solute) was dissolved in the total amount of diluent: X

Structures are written as SMILES.

With `Cc1cccc(C)c1N(CCCN1C(=O)c2ccccc2C1=O)C1=CC2Oc3cc(N(C)CCN(C)c4ccc5c(-c6ccccc6S(=O)(=O)[O-])c6ccc(N(CCCN7C(=O)c8ccccc8C7=O)c7c(C)cccc7C)cc6[o+]c5c4)ccc3C(c3ccccc3S(=O)(=O)O)=C2C=C1` (centres unmarked) [Comparative Synthesis Example 3, reference compound], the Solubility entry is listed as “X (Less than 10 wt % of the compound (solute) was dissolved in the total amount of diluent)”.
With `Cc1cccc(C)c1N(CCCN1C(=O)c2ccccc2C1=O)C1=CC2Oc3cc(N(C)CCCCCCCCCCCN(C)c4ccc5c(-c6ccccc6S(=O)(=O)[O-])c6ccc(N(CCCN7C(=O)c8ccccc8C7=O)c7c(C)cccc7C)cc6[o+]c5c4)ccc3C(c3ccccc3S(=O)(=O)O)=C2C=C1` (centres unmarked) [Comparative Synthesis Example 4, reference compound], the Solubility result is on record as “X (Less than 10 wt % of the compound (solute) was dissolved in the total amount of diluent)”.
The entry for `CCN(CCCCCCN(CC)c1ccc2c(-c3ccccc3S(=O)(=O)[O-])c3ccc(N(CN4C(=O)c5ccccc5C4=O)c4c(C)cccc4C)cc3[o+]c2c1)c1ccc2c(c1)OC1C=C(N(CN3C(=O)c4ccccc4C3=O)c3c(C)cccc3C)C=CC1=C2c1ccccc1S(=O)(=O)O` (centres unmarked) [Comparative Synthesis Example 5, reference compound] is “X (Less than 10 wt % of the compound (solute) was dissolved in the total amount of diluent)”; for `CCN(CCCCCCN(CC)c1ccc2c(-c3ccccc3S(=O)(=O)[O-])c3ccc(N(CCCN4C(=O)c5ccccc5C4=O)c4c(C)cccc4C)cc3[o+]c2c1)c1ccc2c(c1)OC1C=C(N(CCCN3C(=O)c4ccccc4C3=O)c3c(C)cccc3C)C=CC1=C2c1ccccc1S(=O)(=O)O` (centres unmarked) [Synthesis Example 1] it is “◯”; for `CCN(CCCCCCN(CC)c1ccc2c(-c3ccccc3S(=O)(=O)[O-])c3ccc(N(CCCCN4C(=O)c5ccccc5C4=O)c4c(C)cccc4C)cc3[o+]c2c1)c1ccc2c(c1)OC1C=C(N(CCCCN3C(=O)c4ccccc4C3=O)c3c(C)cccc3C)C=CC1=C2c1ccccc1S(=O)(=O)O` (centres unmarked) [Synthesis Example 2] it is “◯”.
`CCN(CCCCCCN(CC)c1ccc2c(-c3ccccc3S(=O)(=O)[O-])c3ccc(N(CCN4C(=O)c5ccccc5C4=O)c4c(C)cccc4C)cc3[o+]c2c1)c1ccc2c(c1)OC1C=C(N(CCN3C(=O)c4ccccc4C3=O)c3c(C)cccc3C)C=CC1=C2c1ccccc1S(=O)(=O)O` (centres unmarked) [Synthesis Example 3]: the Solubility result is reported as “◯”.
With `CCN(CCCCCCN(CC)c1ccc2c(-c3ccccc3S(=O)(=O)[O-])c3ccc(N(CCCN4C(=O)c5ccccc5C4=O)c4ccccc4C)cc3[o+]c2c1)c1ccc2c(c1)OC1C=C(N(CCCN3C(=O)c4ccccc4C3=O)c3ccccc3C)C=CC1=C2c1ccccc1S(=O)(=O)O` (centres unmarked) [Synthesis Example 4], the Solubility result is listed as “◯”.
Under `Cc1cccc(C)c1N(CCCN1C(=O)c2ccccc2C1=O)C1=CC2Oc3cc(N(C)CCCN(C)c4ccc5c(-c6ccccc6S(=O)(=O)[O-])c6ccc(N(CCCN7C(=O)c8ccccc8C7=O)c7c(C)cccc7C)cc6[o+]c5c4)ccc3C(c3ccccc3S(=O)(=O)O)=C2C=C1` (centres unmarked) [Synthesis Example 5] stands “◯”.
